The source made the active and inactive calls. No cut-off for these calls is given here.
What was measured:
[1] = target: Alpha-1D adrenergic receptor (Homo sapiens) (UniProt P25100); conditions: Compound concentration 10.0 uM
[2] = target: T1, Dual specificity mitogen-activated protein kinase kinase 6 (Homo sapiens) (UniProt P52564); assay: MAP2K6 SGC Tm panel (DSF); conditions: for ΔTm: Compound concentration 10.0 uM
T1 sequence (whole entry): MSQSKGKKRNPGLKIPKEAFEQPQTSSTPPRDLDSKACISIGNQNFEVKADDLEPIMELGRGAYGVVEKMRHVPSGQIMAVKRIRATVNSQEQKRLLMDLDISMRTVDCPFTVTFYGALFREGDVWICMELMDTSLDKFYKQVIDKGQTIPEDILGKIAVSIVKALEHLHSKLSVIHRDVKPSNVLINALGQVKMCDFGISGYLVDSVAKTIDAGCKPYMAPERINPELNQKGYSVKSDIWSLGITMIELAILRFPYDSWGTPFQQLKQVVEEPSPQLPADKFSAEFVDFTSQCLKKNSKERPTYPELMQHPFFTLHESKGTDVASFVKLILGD

[3] = target: T2, Serine/threonine-protein kinase Nek1 (Homo sapiens) (UniProt Q96PY6); assay: NEK1 SGC Tm panel (DSF); conditions: for ΔTm: Compound concentration 10.0 uM
T2 sequence (whole entry): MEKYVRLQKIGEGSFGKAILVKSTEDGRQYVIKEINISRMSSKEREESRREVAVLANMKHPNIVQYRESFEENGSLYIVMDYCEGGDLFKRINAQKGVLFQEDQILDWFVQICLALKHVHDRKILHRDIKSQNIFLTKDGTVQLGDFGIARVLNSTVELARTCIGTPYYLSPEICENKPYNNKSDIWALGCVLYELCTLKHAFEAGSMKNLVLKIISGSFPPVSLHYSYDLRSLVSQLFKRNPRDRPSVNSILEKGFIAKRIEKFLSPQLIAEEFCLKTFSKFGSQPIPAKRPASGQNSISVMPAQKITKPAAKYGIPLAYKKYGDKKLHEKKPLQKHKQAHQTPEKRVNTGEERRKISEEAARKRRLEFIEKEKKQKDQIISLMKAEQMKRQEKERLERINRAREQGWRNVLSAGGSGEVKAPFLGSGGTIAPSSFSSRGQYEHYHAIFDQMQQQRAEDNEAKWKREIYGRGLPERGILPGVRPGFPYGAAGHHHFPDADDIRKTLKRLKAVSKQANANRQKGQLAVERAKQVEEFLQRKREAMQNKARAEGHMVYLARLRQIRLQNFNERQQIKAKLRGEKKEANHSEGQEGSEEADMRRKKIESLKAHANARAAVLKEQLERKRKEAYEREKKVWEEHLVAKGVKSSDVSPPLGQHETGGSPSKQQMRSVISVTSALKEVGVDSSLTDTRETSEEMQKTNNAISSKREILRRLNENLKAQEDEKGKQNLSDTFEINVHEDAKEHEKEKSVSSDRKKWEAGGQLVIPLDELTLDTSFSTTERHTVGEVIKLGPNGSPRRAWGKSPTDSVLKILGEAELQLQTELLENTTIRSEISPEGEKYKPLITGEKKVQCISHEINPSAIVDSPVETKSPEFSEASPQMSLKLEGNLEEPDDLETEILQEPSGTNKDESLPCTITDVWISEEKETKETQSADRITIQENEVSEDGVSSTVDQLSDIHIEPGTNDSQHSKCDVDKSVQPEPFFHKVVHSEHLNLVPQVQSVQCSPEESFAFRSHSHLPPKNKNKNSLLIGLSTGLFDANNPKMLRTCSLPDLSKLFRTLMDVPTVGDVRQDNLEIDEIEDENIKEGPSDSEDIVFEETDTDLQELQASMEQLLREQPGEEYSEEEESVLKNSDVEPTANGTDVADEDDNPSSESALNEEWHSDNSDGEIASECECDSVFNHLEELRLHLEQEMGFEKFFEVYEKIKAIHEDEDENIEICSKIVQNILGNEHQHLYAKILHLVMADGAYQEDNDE

[4] = target: Calcium/calmodulin-dependent protein kinase type II subunit beta (Homo sapiens) (UniProt Q13554); assay: CAMK2B SGC Tm panel (DSF); conditions: for ΔTm: Compound concentration 10.0 uM
Sequence of Calcium/calmodulin-dependent protein kinase type II subunit beta (Homo sapiens) (Q13554 whole entry): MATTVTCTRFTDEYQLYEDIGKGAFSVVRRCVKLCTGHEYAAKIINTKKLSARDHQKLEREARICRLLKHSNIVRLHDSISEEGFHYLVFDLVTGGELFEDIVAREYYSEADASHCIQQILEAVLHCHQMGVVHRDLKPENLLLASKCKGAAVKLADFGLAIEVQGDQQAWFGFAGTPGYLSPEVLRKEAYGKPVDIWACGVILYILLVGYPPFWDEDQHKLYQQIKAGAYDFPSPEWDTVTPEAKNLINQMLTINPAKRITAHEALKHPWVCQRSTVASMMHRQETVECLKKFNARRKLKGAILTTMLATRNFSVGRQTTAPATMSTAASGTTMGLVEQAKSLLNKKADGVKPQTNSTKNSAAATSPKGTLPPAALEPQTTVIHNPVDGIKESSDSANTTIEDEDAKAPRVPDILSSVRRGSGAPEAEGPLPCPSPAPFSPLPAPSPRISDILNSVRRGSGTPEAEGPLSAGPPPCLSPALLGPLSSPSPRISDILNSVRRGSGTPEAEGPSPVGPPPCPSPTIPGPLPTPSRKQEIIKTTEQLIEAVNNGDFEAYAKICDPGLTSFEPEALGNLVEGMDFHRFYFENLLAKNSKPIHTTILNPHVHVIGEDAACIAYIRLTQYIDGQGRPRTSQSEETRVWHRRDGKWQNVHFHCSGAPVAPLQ

[5] = target: T3, Serine/threonine-protein kinase Nek2 (Homo sapiens) (UniProt P51955); assay: NEK2 SGC Tm panel (DSF); conditions: for ΔTm: Compound concentration 10.0 uM
T3 sequence (whole entry): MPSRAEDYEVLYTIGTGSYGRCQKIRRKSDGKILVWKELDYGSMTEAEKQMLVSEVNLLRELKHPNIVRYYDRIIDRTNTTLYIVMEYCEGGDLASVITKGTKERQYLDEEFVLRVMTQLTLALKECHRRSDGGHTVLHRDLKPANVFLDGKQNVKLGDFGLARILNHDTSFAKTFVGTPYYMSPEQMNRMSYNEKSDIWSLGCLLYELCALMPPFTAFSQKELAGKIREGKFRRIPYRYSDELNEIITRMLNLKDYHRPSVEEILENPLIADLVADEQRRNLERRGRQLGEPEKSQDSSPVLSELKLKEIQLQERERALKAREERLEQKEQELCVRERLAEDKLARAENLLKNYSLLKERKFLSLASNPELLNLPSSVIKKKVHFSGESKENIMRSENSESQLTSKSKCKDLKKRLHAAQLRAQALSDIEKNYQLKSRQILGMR

[6] = target: T4, 5-hydroxytryptamine receptor 2C (Homo sapiens) (UniProt P28335); conditions: Compound concentration 10.0 uM
T4 sequence (whole entry): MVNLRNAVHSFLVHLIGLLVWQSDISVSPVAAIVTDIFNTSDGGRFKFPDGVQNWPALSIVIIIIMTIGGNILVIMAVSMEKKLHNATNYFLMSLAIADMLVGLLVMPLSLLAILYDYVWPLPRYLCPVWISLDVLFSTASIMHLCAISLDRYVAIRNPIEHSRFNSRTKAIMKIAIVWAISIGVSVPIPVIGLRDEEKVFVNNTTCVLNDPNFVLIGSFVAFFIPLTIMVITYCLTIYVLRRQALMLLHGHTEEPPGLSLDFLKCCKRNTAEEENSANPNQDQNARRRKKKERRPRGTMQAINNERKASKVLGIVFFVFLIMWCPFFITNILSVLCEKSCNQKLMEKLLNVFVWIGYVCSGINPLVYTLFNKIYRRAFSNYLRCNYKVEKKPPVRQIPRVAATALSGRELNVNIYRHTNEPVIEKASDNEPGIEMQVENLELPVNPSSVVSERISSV

[7] = target: D(3) dopamine receptor (Homo sapiens) (UniProt P35462); conditions: Compound concentration 10.0 uM
Sequence of D(3) dopamine receptor (Homo sapiens) (P35462 whole entry): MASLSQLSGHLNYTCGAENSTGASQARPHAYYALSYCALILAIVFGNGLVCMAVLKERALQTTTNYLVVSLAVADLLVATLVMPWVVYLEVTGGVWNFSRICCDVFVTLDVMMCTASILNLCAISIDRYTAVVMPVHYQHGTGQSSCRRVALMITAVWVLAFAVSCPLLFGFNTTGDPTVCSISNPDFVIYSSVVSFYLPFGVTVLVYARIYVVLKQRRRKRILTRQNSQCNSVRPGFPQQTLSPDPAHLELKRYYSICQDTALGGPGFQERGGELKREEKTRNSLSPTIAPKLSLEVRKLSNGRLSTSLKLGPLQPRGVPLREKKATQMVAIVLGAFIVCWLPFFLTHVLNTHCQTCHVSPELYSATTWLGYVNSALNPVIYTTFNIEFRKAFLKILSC

[8] = target: High affinity cGMP-specific 3',5'-cyclic phosphodiesterase 9A (Homo sapiens, UniProt O76083); assay: 3H-cAMP and 3H-cGMP Scintillation Proximity Assay (PDE9A)
Sequence of High affinity cGMP-specific 3',5'-cyclic phosphodiesterase 9A (O76083 whole entry): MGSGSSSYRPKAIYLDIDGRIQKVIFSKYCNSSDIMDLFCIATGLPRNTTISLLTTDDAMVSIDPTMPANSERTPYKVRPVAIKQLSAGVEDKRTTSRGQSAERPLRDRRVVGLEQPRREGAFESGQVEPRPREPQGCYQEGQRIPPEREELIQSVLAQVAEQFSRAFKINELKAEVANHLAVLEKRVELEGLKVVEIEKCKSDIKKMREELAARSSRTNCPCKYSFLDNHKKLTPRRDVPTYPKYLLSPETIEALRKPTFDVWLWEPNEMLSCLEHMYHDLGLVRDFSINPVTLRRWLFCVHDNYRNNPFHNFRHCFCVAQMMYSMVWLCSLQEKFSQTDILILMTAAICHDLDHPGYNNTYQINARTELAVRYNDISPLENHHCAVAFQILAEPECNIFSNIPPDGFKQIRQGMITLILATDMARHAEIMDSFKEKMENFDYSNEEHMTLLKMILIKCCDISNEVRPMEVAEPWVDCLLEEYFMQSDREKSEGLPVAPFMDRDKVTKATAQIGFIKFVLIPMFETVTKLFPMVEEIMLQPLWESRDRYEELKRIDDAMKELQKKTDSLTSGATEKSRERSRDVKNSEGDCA

Sequence of Alpha-1D adrenergic receptor (Homo sapiens) (P25100 whole entry): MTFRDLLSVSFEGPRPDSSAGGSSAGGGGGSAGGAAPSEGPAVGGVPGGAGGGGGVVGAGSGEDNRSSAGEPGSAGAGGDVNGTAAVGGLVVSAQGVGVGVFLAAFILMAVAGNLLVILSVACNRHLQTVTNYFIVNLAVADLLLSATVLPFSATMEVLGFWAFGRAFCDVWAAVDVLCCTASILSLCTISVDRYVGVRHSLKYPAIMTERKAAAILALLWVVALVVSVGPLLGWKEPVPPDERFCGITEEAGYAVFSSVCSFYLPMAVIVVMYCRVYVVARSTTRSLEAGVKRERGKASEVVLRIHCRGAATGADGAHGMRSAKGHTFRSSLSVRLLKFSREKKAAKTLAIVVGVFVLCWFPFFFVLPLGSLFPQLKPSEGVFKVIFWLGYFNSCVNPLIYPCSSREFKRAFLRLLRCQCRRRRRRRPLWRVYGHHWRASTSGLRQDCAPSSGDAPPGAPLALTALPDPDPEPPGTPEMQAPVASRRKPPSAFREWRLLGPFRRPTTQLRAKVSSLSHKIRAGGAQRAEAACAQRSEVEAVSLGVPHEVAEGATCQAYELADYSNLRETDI

SMILES | inhibition [1] | delta Tm Staurosporine positive control [2] | ΔTm [2] | delta Tm Staurosporine positive control [3] | ΔTm [3] | delta Tm Staurosporine positive control [4] | ΔTm [4] | delta Tm Staurosporine positive control [5] | ΔTm [5] | inhibition [6] | inhibition [7] | IC50 [8]
CCC[C@H]1CNCc2c1[nH]c(=O)c(C#N)c2N1CCC2(CC1)CC2 | 0.14% | 12.8 | -0.0944 | 2.43 | 0.404 | 13.7 | -0.51 | 4.25 | -1.22 | 8.81% | 12.3% | 0.015 µM (active)
CCC[C@@H]1CNCc2c1[nH]c(=O)c(C#N)c2N1CCC2(CC1)CC2 | -2.05% | 12.8 | -0.119 | 2.43 | 0.25 | 13.7 | -0.647 | 4.25 | -1.52 | 9.88% | -9.68% | > 10 µM (not active)

Source: ChEMBL document CHEMBL5303765, “Data for DCP probe BAY-7081” (2023)
